Measured values from patent US11318137B2, “Quinazoline compounds as modulators of Ras signaling” (VANDERBILT UNIVERSITY, priority 2017, dated 2022).

Tests used:
[1] = target: T1, SOS-mediated nucleotide exchange on Ras (Homo sapiens, UniProt Q07889); experiment: SOS-mediated nucleotide exchange on Ras (BODIPY-GDP fluorescence); type: biochemical; details: Ras loaded with BODIPY-GDP, GTP and SOS added; EC50 from derived exchange rates
T1 sequence (Q07889 1-1333): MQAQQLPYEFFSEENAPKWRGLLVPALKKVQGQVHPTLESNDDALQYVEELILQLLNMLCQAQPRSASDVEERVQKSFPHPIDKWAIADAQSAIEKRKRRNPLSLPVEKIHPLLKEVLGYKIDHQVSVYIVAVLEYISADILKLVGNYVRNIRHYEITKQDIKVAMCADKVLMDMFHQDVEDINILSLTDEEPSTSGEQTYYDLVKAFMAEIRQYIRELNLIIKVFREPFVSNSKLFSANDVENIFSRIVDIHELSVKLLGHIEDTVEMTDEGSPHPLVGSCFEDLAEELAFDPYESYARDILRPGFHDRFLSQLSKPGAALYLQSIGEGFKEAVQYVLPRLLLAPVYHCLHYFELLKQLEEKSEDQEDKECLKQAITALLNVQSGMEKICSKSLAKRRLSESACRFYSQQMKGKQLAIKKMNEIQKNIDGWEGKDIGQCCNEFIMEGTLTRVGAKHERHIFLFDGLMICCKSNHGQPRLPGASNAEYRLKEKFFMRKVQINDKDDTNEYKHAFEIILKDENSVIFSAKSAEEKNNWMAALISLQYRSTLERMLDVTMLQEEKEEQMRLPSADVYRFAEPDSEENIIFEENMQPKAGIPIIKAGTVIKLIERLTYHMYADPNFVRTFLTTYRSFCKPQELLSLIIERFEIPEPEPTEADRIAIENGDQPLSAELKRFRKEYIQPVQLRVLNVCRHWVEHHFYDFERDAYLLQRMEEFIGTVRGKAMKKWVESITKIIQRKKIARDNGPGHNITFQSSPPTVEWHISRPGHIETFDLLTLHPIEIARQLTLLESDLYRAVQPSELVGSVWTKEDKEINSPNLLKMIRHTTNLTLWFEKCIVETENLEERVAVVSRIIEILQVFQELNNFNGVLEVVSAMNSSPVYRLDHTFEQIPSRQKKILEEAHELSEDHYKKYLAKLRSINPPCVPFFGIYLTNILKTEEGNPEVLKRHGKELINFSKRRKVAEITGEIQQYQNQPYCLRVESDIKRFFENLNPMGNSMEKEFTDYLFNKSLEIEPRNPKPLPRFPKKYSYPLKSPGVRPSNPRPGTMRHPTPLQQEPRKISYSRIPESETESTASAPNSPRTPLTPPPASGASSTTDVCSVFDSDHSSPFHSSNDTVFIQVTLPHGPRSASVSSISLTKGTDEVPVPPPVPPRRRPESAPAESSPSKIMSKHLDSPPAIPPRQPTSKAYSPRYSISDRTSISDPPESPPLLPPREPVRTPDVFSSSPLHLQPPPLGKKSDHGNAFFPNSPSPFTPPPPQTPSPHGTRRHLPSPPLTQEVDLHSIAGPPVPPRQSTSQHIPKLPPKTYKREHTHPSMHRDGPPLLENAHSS
Summary of the method: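 Compound, then GTP and SOS, were added to buffered Ras preloaded with BODIPY-GDP, and the fluorescence change from labeled GDP being exchanged for GTP was followed over time. Rates came from single-exponential fits, and EC50 from a four-parameter fit of mean rate against compound concentration.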

[2] = target: T2, Son of Sevenless (SOS) (Homo sapiens, UniProt Q07889); experiment: Binding to SOS, fluorescence polarization anisotropy (FPA) displacement of FITC-conjugated probe; details: binding affinity calculated from IC50 of FITC-probe displacement, read-out: Binding affinities (binding affinity to SOS)
T2 sequence (Q07889 564-1049 limits assumed): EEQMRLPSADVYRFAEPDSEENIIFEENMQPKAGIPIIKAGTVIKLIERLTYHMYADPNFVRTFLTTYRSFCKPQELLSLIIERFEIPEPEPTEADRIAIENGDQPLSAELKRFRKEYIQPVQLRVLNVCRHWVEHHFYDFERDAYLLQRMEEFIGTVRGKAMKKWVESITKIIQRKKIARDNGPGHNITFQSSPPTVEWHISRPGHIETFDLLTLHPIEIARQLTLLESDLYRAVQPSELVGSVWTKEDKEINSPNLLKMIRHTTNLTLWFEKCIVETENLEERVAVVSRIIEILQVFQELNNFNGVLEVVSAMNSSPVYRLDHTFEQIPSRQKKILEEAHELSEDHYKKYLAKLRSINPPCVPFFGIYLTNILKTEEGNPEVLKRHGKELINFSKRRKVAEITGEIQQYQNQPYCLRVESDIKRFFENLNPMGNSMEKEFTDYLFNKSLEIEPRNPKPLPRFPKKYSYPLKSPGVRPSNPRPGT
Protocol: Compounds of the present invention were tested for their ability to the Ras guanine exchange factor (GEF) Son of Sevenless (SOS). Binding to SOS was measured using a Fluorescence polarization anisotropy (FPA) assay that assesses the ability of a test compound to displace a fluorescent FITC-conjugated compound. Briefly, the labeled probe compound is incubated with SOS in buffer. Changes in anisotropy indicative of displacement of the labeled probe for a test compound are assessed over a dose range of test compound. Data was analyzed by plotting fluorescence anisotropy values as a function of compound concentration. IC50 values were determined using a four-parameter dose-response (variable slope) and binding affinities were calculated from this IC50 value. This assay is performed in a method analogous to the assay disclosed in: Burns, M. C.; Sun, Q.; Daniels, R. N.; Camper, D. V.; Kennedy, J. P.; Phan, J.; Olejniczak, E. O.; Lee, T.; Waterson, A. G.; Rossanese, O. W.; Fesik, S. W. “Approach for targeting Ras with small molecules that activate SOS-mediated nucleotide exchange” Proc. Natl. Acad. Sci. 2014; 11(9): 3401-3406. PMCID: PMC3948241.

Row | SMILES | EC50 [1] [µM] | Ki [2] [µM]
1 | C[C@@H](Nc1nc(Nc2ccc(F)c(Cl)c2)nc2c(CCN)cccc12)c1cccs1 [Example 91, (R)-8-(2-aminoethyl)-N^2-(3-chloro-4-fluorophenyl)-N^4-(1-(thiophen-2-yl)ethyl)quinazoline-2,4-diamine] | 5 to 30 | 1 to 5
2 | Cc1cc(F)cc(Nc2nc(N[C@H](C)c3cccs3)c3cccc(CCN)c3n2)c1 [Example 92, (R)-8-(2-aminoethyl)-N^2-(3-fluoro-5-methylphenyl)-N^4-(1-(thiophen-2-yl)ethyl)quinazoline-2,4-diamine] | 5 to 30 | > 5
3 | C[C@@H](Nc1nc(NCC2CCCCC2)nc2c(CCN)cccc12)c1cccs1 [Example 93, (R)-8-(2-aminoethyl)-N^2-(cyclohexylmethyl)-N^4-(1-(thiophen-2-yl)ethyl)quinazoline-2,4-diamine] | 5 to 30 | < 1
4 | C[C@@H](Nc1nc(NCc2cccc(Cl)c2F)nc2c(CCN)cccc12)c1cccs1 [Example 94, (R)-8-(2-aminoethyl)-N^2-(3-chloro-2-fluorobenzyl)-N^4-(1-(thiophen-2-yl)ethyl)quinazoline-2,4-diamine] | 1 to 5 | 1 to 5
5 | Cc1cc(F)cc(Nc2nc(N[C@H](C)c3cccs3)c3cccc(CN)c3n2)c1 [Example 95, (R)-8-(aminomethyl)-N^2-(3-fluoro-5-methylphenyl)-N^4-(1-(thiophen-2-yl)ethyl)quinazoline-2,4-diamine] | 5 to 30 | > 5
6 | C[C@@H](Nc1nc(NCc2cccc(Cl)c2F)nc2c(CN)cccc12)c1cccs1 [Example 97, (R)-8-(aminomethyl)-N^2-(3-chloro-2-fluorobenzyl)-N^4-(1-(thiophen-2-yl)ethyl)quinazoline-2,4-diamine] | 5 to 30 | > 5
7 | C[C@@H](Nc1nc(NCC2CCCCCC2)nc2c(C3=CCNCC3)cccc12)C1CC1 [Example 103, (R)—N^2-(cycloheptylmethyl)-N^4-(1-cyclopropylethyl)-8-(1,2,3,6-tetrahydropyridin-4-yl)quinazoline-2,4-diamine] | 5 to 30 | > 5
8 | C[C@@H](Nc1nc(NCC2CCCC2)nc2c(C3=CCNCC3)cccc12)C1CC1 [Example 105, (R)—N^2-(cyclopentylmethyl)-N^4-(1-cyclopropylethyl)-8-(1,2,3,6-tetrahydropyridin-4-yl)quinazoline-2,4-diamine] | 1 to 5 | 1 to 5
9 | C[C@@H](Nc1nc(NCC2CCC2)nc2c(C3=CCNCC3)cccc12)C1CC1 [Example 106, (R)—N^2-(cyclobutylmethyl)-N^4-(1-cyclopropylethyl)-8-(1,2,3,6-tetrahydropyridin-4-yl)quinazoline-2,4-diamine] | < 1 | 1 to 5
10 | Cc1cc(F)cc(Nc2nc(N[C@H](C)C3CC3)c3cccc(C4=CCNCC4)c3n2)c1 [Example 107, (R)—N^4-(1-cyclopropylethyl)-N^2-(3-fluoro-5-methylphenyl)-8-(1,2,3,6-tetrahydropyridin-4-yl)quinazoline-2,4-diamine] | 1 to 5 | 1 to 5
11 | Cc1cc(F)cc(Nc2nc(NC(C3CC3)C3CC3)c3cccc(C4=CCNCC4)c3n2)c1 [Example 108, N^4-(dicyclopropylmethyl)-N^2-(3-fluoro-5-methylphenyl)-8-(1,2,3,6-tetrahydropyridin-4-yl)quinazoline-2,4-diamine] | 1 to 5 | 1 to 5
12 | C[C@@H](Nc1nc(Nc2ccc(F)c(Cl)c2)nc2c(NCC3CNC3)cccc12)C1CC1 [Example 111, (R)—N^8-(azetidin-3-ylmethyl)-N^2-(3-chloro-4-fluorophenyl)-N^4-(1-cyclopropylethyl)quinazoline-2,4,8-triamine] | 5 to 30 | > 5
13 | C[C@@H](Nc1nc(Nc2ccc(F)c(Cl)c2)nc2c(NC3CNC3)cccc12)C1CC1 [Example 112, (R)—N^8-(azetidin-3-yl)-N^2-(3-chloro-4-fluorophenyl)-N-(1-cyclopropylethyl)quinazoline-2,4,8-triamine] | 1 to 5 | > 5
14 | C[C@@H](Nc1nc(Nc2ccc(F)c(Cl)c2)nc2c(CC3CNC3)cccc12)C1CC1 [Example 113, (R)-8-(azetidin-3-ylmethyl)-N^2-(3-chloro-4-fluorophenyl)-N^4-(1-cyclopropylethyl)quinazoline-2,4-diamine] | 1 to 5 | 1 to 5
15 | C[C@@H](Nc1nc(Nc2ccc(F)c(Cl)c2)nc2c(CC3CC(N)C3)cccc12)C1CC1 (stereo partly drawn) [Example 114, (R)-8-((3-aminocyclobutyl)methyl)-N^2-(3-chloro-4-fluorophenyl)-N^4-(1-cyclopropylethyl)quinazoline-2,4-diamine] | 1 to 5 | 1 to 5
16 | C=CC[C@@H](Nc1nc(Nc2ccc(F)c(Cl)c2)nc2c(C3=CCNCC3)cccc12)C1CC1 [Example 115, (R)—N^2-(3-chloro-4-fluorophenyl)-N^4-(1-cyclopropylbut-3-en-1-yl)-8-(1,2,3,6-tetrahydropyridin-4-yl)quinazoline-2,4-diamine] | 1 to 5 | 1 to 5
17 | C=CC[C@@H](Nc1nc(Nc2cc(F)cc(F)c2)nc2c(C3=CCNCC3)cccc12)C1CC1 [Example 116, (R)—N^4-(1-cyclopropylbut-3-en-1-yl)-N^2-(3,5-difluorophenyl)-8-(1,2,3,6-tetrahydropyridin-4-yl)quinazoline-2,4-diamine] | 1 to 5 | < 1
18 | C=CC[C@@H](Nc1nc(NCC2CCCCC2)nc2c(C3=CCNCC3)cccc12)C1CC1 [Example 117, (R)—N^2-(cyclohexylmethyl)-N^4-(1-cyclopropylbut-3-en-1-yl)-8-(1,2,3,6-tetrahydropyridin-4-yl)quinazoline-2,4-diamine] | 1 to 5 | < 1
19 | Cc1cc(F)cc(Nc2nc(N[C@H](C)C3CC3)c3cccc(CCN)c3n2)c1 [Example 118, (R)-8-(2-aminoethyl)-N^4-(1-cyclopropylethyl)-N^2-(3-fluoro-5-methylphenyl)quinazoline-2,4-diamine] | 1 to 5 | 1 to 5
20 | C[C@@H](Nc1nc(NCc2cccc(Cl)c2F)nc2c(CCN)cccc12)C1CC1 [Example 119, (R)-8-(2-aminoethyl)-N^2-(3-chloro-2-fluorobenzyl)-N^4-(1-cyclopropylethyl)quinazoline-2,4-diamine] | 1 to 5 | 1 to 5
